Experimental findings from patent publication EP0753513A2, “Optically active triazole derivative, process for producing the same, antifungal agent, and use thereof” (NIHON NOHYAKU CO., LTD., priority 1995, dated 1997) are described below.

Test [1] concerns Candida albicans IFO1270. Briefly: Growth inhibition of Candida albicans in Sabouraud's glucose broth (Test Example 1). In kind it is cell-based. The following applies: two days incubation at 37°C under shaking; for Growth inhibition ratio 0.1 µg/ml (%): 0.1 µg/ml test compound; for Growth inhibition ratio 10 µg/ml (%): 10 µg/ml test compound. The procedure: Sabouraud's glucose broth (9.8 ml) was inoculated with 0.1 ml of Candida albicans IFO1270 (1.0×10^6 cells/ml). Then 0.1 ml of a solution of each test compound dissolved with dimethylsulfoxide in an appropriate concentration was added to give concentrations of 10 µg/ml and 0.1 µg/ml. Two days after incubating at 37°C under shaking, the growth inhibition ratio was measured. […]

In test [2] the test system is Candida albicans IFO1270. Briefly: Survival of mice inoculated with Candida albicans after oral treatment (Test Example 2). The conditions noted are these: ddY mice; 0.5% aqueous CMC solution containing 0.02% of test compound, orally, 5 ml/kg once a day for 4 days; survival ratio on final day (10 days following inoculation). In kind it is in vivo. The protocol: ddY mice aged 6 weeks were divided into a control group having 10 mice and test groups each having 5 mice. After inoculating with 4 ml/kg of Candida albicans IFO1270 (2.5×10^7 cells/ml), which had been incubated on Sabouraud's glucose agar medium at 37°C for 2 hours, a 0.5% aqueous CMC solution (containing 10% of polyethylene glycol 400 and 0.1% of Tween 80) containing 0.02% of each test compound was orally administered to the mice in a dose of 5 ml/kg once a day for 4 days. The viable […] were counted for 10 days following the inoculation and the survival ratio on the final day was calculated. […]

As for `CC(=O)N1CCN(c2ccc(OC[C@H]3CO[C@](Cn4ccnc4)(c4ccc(Cl)cc4Cl)O3)cc2)CC1` (relative stereo) [A, Cis-1-acetyl-4-[4-[[2-(2,4-dichlorophenyl)-2-(imidazol-1-ylmethyl)-1-3-oxolan-4-yl]methoxy]phenyl]piperazine, reference compound], in the test with Candida albicans IFO1270 [1], the “Growth inhibition ratio 0.1 µg/ml (%)” value amounted to 47% and the “Growth inhibition ratio 10 µg/ml (%)” value is 59%. Further, the “Survival ratio (%)” value with Candida albicans IFO1270 [2] was determined as 40%.
In the case of `C[C@@H](Cc1ccc(F)cc1)[C@](O)(Cn1cncn1)c1ccc(F)cc1F` [Compound 1, (2R,3S)-2-(2,4-difluorophenyl)-4-(4-fluorophenyl)-3-methyl-1-(1H-1,2,4-triazol-1-yl)butan-2-ol], in the test with Candida albicans IFO1270 [1], the “Growth inhibition ratio 0.1 µg/ml (%)” value was found to be 48% and the “Growth inhibition ratio 10 µg/ml (%)” value is 64%. In addition, the “Survival ratio (%)” value with Candida albicans IFO1270 [2] came to 80%.
The matching figures for `C[C@@H](Cc1ccc(F)cc1F)[C@](O)(Cn1cncn1)c1ccc(F)cc1F` [Compound 2, (2R,3S)-2,4-bis(2,4-difluorophenyl)-3-methyl-1-(1H-1,2,4-triazol-1-yl)butan-2-ol]: 51%, 66% and 60%.
With `C[C@@H](Cc1ccc(C#N)cc1)[C@](O)(Cn1cncn1)c1ccc(F)cc1F` [Compound 7, (2R,3S)-4-(4-cyanophenyl)-2-(2,4-difluorophenyl)-3-methyl-1-(1H-1,2,4-triazol-1-yl)butan-2-ol], in the test on Candida albicans IFO1270 [1], the “Growth inhibition ratio 0.1 µg/ml (%)” value was 55% and the “Growth inhibition ratio 10 µg/ml (%)” value was 70%. Further, the “Survival ratio (%)” value in the test on Candida albicans IFO1270 [2] was 100%.
